Results from patent US20250115628A1, “FLUORINATED FLUOROPHORES” (HOWARD HUGHES MEDICAL INSTITUTE, priority 2023, published 2025).
Read-outs that look alike come from different tables or passages of the source.

Assays:
[1] = fluorescein derivatives; 0.1 N NaOH; data from the inventors' published work; cited from earlier work
[2] = fluorescein derivatives; 0.1 N NaOH; data from the inventors' published work; cited from earlier work; remark: listed apart in the source
[3] = Hill coefficient; data from the inventors' published work; cited from earlier work
[4] = system: U2OS cells stably expressing HaloTag®-histone H2B fusion protein; test: Loading experiments with NIR-excited HaloTag® ligands (nuclear fluorescence); format: cell-based; conditions: 200 nM; live cells expressing HaloTag®-histone H2B
Procedure: U2OS cells (ATCC) and U2OS cells stably expressing an integrated HaloTag®-histone H2B fusion protein (U2OS·H2B·HaloTag®) were cultured in Dulbecco's modified Eagle medium (DMEM, phenol red-free; Life Technologies) supplemented with 10% (v/v) fetal bovine serum (FBS, Life Technologies), 1 mM GlutaMAX (Life Technologies) and maintained at 37° C. in a humidified 5% (v/v) CO2 environment. These cell lines undergo regular mycoplasma testing by the Janelia Cell Culture Facility. For mitochondrial imaging using the HaloTag® system, U2OS cells were transiently transfected using nucleofection (Lonza) with a plasmid constitutively expressing a HaloTag®-TOMM20 fusion protein, which is located on the outer mitochondrial membrane. For 4^−color imaging, U2OS·H2B·HaloTag® stable cells were transiently transfected by nucleofection with plasmids constitutively expressing a SNAP-tag®-TOMM20 fusion protein, and a GFP-SKL (SKL: serine-lysine-leucine) fusion protein, a prototypical peroxisomal matrix targeting signal. All labeled cells were imaged 18-24 h post-transfection or post-plating.
For loading curve experiments (FIG. 15C), U2OS·H2B·HaloTag® stable cells were incubated with 200 nM HaloTag® ligand conjugated dyes (31HTL, 36HTL, 38HTL, 104HTL, 106HTL, 107HTL, and 108HTL) for 0-4 h at 37° C., washed 3× with dye-free media then fixed with 4% paraformaldehyde in 0.1 M phosphate buffer, pH 7.4 for 15 min at 37° C. Confocal imaging was performed on a Leica Stellaris with an HC PL APO 40×/1.25 glycerol objective using the tunable white light laser (WLL) to excite dyes at their λabs in constant power mode. Fluorescence was quantified as the integrated density of nuclear signals in single-plane images analyzed in FIJI;^82 n=100 nuclear signals per compound.

[5] = system: JM8·N4 mouse embryonic stem cells stably expressing histone H2B-HaloTag® fusion proteins; test: Single-particle tracking (SPT) experiments; format: cell-based; conditions: for performance in SPT experiments compared with 1HTL and 89HTL: HaloTag® ligands, 50 Hz imaging
Procedure: SPT experiments were carried out as previously described.^84 JM8·N4 mouse embryonic stem cells (ESCs) stably expressing histone H2B-HaloTag® fusion proteins were generated by co-expressing the PiggyBac EF1a-H2B-HaloTag®-IRES-Neo vector with the super piggyBac transposase as described previously,85 followed by G418 selection (500 μg/mL) for 2 weeks and verified by FACS sorting/confocal imaging staining with JF549-HaloTag® ligand (84HTL; 100 nM, 30 min). Cells were seeded on 25 mm #1.5 coverglass pre-cleaned with KOH and ethanol and coated with iMatrix-511 (TaKaRa #T304) or rhLaminin-521 (Gibco™ #A^29248) according to the manufacturers' instruction. All live-cell imaging experiments were conducted using an ESC imaging medium composed of FluoroBrite DMEM (ThermoFisher) plus 15% v/v ESC-qualified FBS, 1× GlutaMax, 1×NEAA, 0.1 mM 2^−mercaptoethanol, and LIF. For comparison of 59HTL and 89HTL (FIG. 13E, 13F) the histone H2B-HaloTag® ESCs were stained with 5 nM 59HTL for 1 h or 0.1 nM 89HTL for 15 min at 37° C. with 5% (v/v) CO2 to achieve sparse labeling with approximately equal localizations per region of interest (ROI), and then washed with dye-free media 3× for 30 min each wash For comparison of 40HTL, 44HTL, 1HTL, or 89HTL (FIG. 12A-12G) the histone H2B-HaloTag® ESCs were stained with 1 nM of HaloTag® ligands for 15 min at 37° C. with 5% (v/v) CO2 to achieve sparse labeling, and then washed with dye-free media 3× for 30 min each wash.
To quantify the brightness and photostability of the HaloTag® ligands, labeled cells were mounted onto a high speed motorized Nikon Eclipse Ti-E inverted microscope equipped with the following: 100× Apo TIRF 1.49 NA objective with a correction collar; four excitation laser lines (405/488/561/642 nm) and matching TIRF quad cube (405/488/561/640 nm reflection bands); automatic TIRF illuminator with motorized X axis and manual Y axis for beam positioning and focus: perfect focus 3 system; Triple DU-897 iXon Ultra EMCCD cameras on a Cairn Tri-cam emission splitter with filters 525/50 (GFP) 600/50 (RFP) and 705/72 (Cy5); humidified incubation chamber maintained at 37° C. with 5% v/v CO2 (Tokai Hit). SPT was performed at 100 Hz for the comparison of 59HTL and 89HTL (FIG. 13E, 13F) and 50 Hz for the comparison of 40HTL, 44HTL, 1HTL, or 89HTL (FIG. 12A-12G); the imaging session was performed for ˜5000 frames using 100% of maximal excitation power (˜120 mW at the fiber end before the TIRF unit). […] For the comparison of HaloTag® ligands 59HTL and 89HTL (FIG. 13E, 13F) and the comparison of compounds 40HTL, 44HTL, 1HTL, and […] (FIG. 12A-12G), the fluorophores were excited with a 647 nm laser. To minimize drift during imaging, the incubation chamber was fully thermally equilibrated, and all imaging was conducted in an isolated ultra-clean room with minimal mechanical vibrations. The microscope, laser lines, and camera integration were controlled using the Nikon NIS-Elements software. Cells with obvious movement during acquisition were removed from further analysis. SMT analysis was based on multiple target tracing 86 (MTT) with tracking parameters similar to previous work.^84 For SPT brightness (photon counts/molecule/s), intensity values from sparsely-labeled molecules were analyzed. For the comparison of HaloTag® ligands 59HTL and 89HTL (FIG. 13E, 13F): n=147,298 single-molecule events using 59HTL; n=100,392 single-molecule events using 89HTL. […]

[6] = Quantum yield determination; format: physicochemical; conditions: rhodamine derivatives; 10 mM HEPES, pH 7.3
Procedure: All reported absolute fluorescence quantum yield values (Φf) were measured using a Quantaurus-QY spectrometer (model C11374, Hamamatsu). This instrument uses an integrating sphere to determine photons absorbed and emitted by a sample. Measurements were carried out using dilute samples (A<0.1), and self-absorption corrections were performed using the instrument software.^81

[7] = Determination of KL-Z (lactone-zwitterion equilibrium constant); format: physicochemical; parameters: key: KL-Z = (εdw/εmax)/(1−εdw/εmax); εdw measured in 1:1 dioxane/water; conditions: rhodamine derivatives; 1:1 dioxane:H2O
Procedure: KL-Z was calculated using the following equation:^16, 18 KL-Z=(εdw/εmax)/(1−εdw/εmax). εdw is the extinction coefficient of the dyes in a 1:1 (v/v) dioxane/water solvent mixture; this dioxane/water mixture was chosen to give the maximum spread of KL-Z values across all classes of rhodamines.^18 εmax refers to the maximal extinction coefficients measured in different solvent mixtures empirically determined depending on dye type: 0.1% v/v trifluoroacetic acid in ethanol for 18, 20, 29, 34, 36, 70-72, 81-83, 93-95, 99-102, and 104; 0.1% v/v trifluoroacetic acid in 2,2,2^−trifluoroethanol for all other rhodamine variants. A accurate determination of low KL-Z values is complicated by the relatively poor sensitivity of absorbance measurements.

[8] = General UV-vis and fluorescence spectroscopy; format: physicochemical; conditions: rhodamine derivatives; 10 mM HEPES, pH 7.3
Procedure: Spectroscopy was performed using 1^−cm path length, 3.5^−mL quartz cuvettes or 1^−cm path length, 1.4^−mL semi-micro quartz cuvettes from Starna Cells. All measurements were taken at ambient temperature (22±2° C.). Absorption spectra were recorded on a Cary Model 100 spectrometer (Agilent), and fluorescence spectra were recorded on a Cary Eclipse fluorometer (Varian). The spectra, maximum absorption wavelength (labs), extinction coefficient at λabs (8), and maximum emission wavelength (em) were measured in 10 mM HEPES, pH 7.3 buffer (rhodamines and Malachite Green derivative 49) or 0.1 M NaOH (fluoresceins); the reported values for e are averages (n=3). Normalized spectra are shown for clarity.

| Compound | Φf [1] | ε [2] | λabs [2] | λem [2] | ηH [3] | cellular intensity [4] | other results |
| --- | --- | --- | --- | --- | --- | --- | --- |
| C[Si]1(C)c2cc(O)c(F)cc2C2(OC(=O)c3ccccc32)c2cc(F)c(O)cc21 [compound 79] | 0.42 | 60,900 M^−1cm^−1 | 596 nm | 618 nm | 1.30 |  |  |
| CN1CCc2cc3c(cc21)[Si](C)(C)c1cc2c(cc1=C3c1c(F)c(C(=O)NCCOCCOCCCCCCCl)c(F)c(F)c1C(=O)[O-])CC[N+]=2C [108HTL, SiRF712-HaloTag® ligand] |  |  |  |  |  | second highest cellular intensity |  |
| JFX650-HaloTag® ligand [89HTL, reference compound] |  |  |  |  |  |  | SPT localizations over time ([5]; 100 Hz imaging): relatively rapid bleaching |
| C[Si]1(C)c2cc(O)c(F)cc2C2(OC(=O)c3c(F)c(F)c(F)c(F)c32)c2cc(F)c(O)cc21 [compound 80] | 0.32 | 67,900 M^−1cm^−1 | 617 nm | 635 nm | 1.50 |  |  |
| CC1=CC(C)(C)N(C)c2cc3c(cc21)C(c1cc(C(=O)NCCOCCOCCCCCCCl)ccc1C(=O)[O-])=c1cc2c(cc1[Si]3(C)C)=[N+](C)C(C)(C)C=C2C [104HTL, 4^−((2-(2^−((6^−Chlorohexyl)oxy)ethoxy)ethyl)carbamoyl)-2^−(1,2,2,4,8,10,10,11,13,13^−decamethyl-2,10,11,13^−tetra-hydrosilino[3,2^−g:5,6^−g′]diquinolin-6^−ylium-6(1H)-yl)benzoate] |  |  |  |  |  | relatively low intensity |  |
| [2H]C1([2H])N(c2ccc3c(c2)C(C)(C)C2=CC(=[N+]4C([2H])([2H])C([2H])([2H])C([2H])([2H])C4([2H])[2H])C=CC2=C3c2c(F)c(F)c(F)c(F)c2C(=O)[O-])C([2H])([2H])C([2H])([2H])C1([2H])[2H] [compound 40, JFX637] |  |  |  |  |  |  | Φf [6]: 0.56; KL-Z [7]: 6.12; ε [8]: 147,000 M^−1cm^−1; λabs [8]: 637 nm; performance in SPT experiments compared with 1HTL and 89HTL [5]: comparable performance |
| C[Si]1(C)c2cc(O)ccc2C2(OC(=O)c3ccccc32)c2ccc(O)cc21 [compound 75] | 0.53 | 93,000 M^−1cm^−1 | 579 nm | 599 nm | 1.69 |  |  |
| CC1=CC(C)(C)Nc2cc3c(cc21)C(c1c(F)c(C(=O)NCCOCCOCCCCCCCl)c(F)c(F)c1C(=O)O)=c1cc2c(cc1[Si]3(C)C)=NC(C)(C)C=C2C [36HTL, 4^−((2^−(2^−((6^−Chlorohexyl)oxy)ethoxy)ethyl)carbamoyl)-2,3,5^−trifluoro-6-(2,2,4,8,10,10,13,13^−octamethyl-2,10,11,13^−tetrahydrosilino [3,2^−g:5,6^−g′]diquinolin-6^−ylium-6(1H)-yl)benzoate] |  |  |  |  |  | relatively low intensity |  |
| CC1(C)c2cc(O)c(F)cc2C2(OC(=O)c3ccccc32)c2cc(F)c(O)cc21 [compound 78, Virginia Orange] | 0.40 | 90,900 M^−1cm^−1 | 555 nm | 581 nm | 1.46 |  |  |
| CC1=CC(C)(C)N(C)c2cc3c(cc21)C(c1c(F)c(C(=O)NCCOCCOCCCCCCCl)c(F)c(F)c1C(=O)[O-])=c1cc2c(cc1[Si]3(C)C)=[N+](C)C(C)(C)C=C2C [38HTL, 4^−((2^−(2^−((6^−Chlorohexyl)oxy)ethoxy)ethyl)carbamoyl)-2^−(1,2,2,4,8,10,10,11,13,13-decamethyl-2,10,11,13^−tetra-hydrosilino[3,2^−g:5,6^−g′]diquinolin-6^−ylium-6(1H)-yl)-3,5,6-trifluorobenzoate] |  |  |  |  |  | relatively low intensity |  |
| CC1(C)c2cc(O)ccc2C2(OC(=O)c3ccccc32)c2ccc(O)cc21 [compound 74, carbofluorescein] | 0.62 | 108,000 M^−1cm^−1 | 544 nm | 567 nm | 1.65 |  |  |
| CC1(C)C2=CC(=[N+]3CCC3)C=CC2=C(c2c(F)c(F)c(F)c(F)c2C(=O)[O-])c2ccc(N3CCC3)cc21 [compound 44, JF632] |  |  |  |  |  |  | Φf [6]: 0.54; KL-Z [7]: 3.59; ε [8]: 139,000 M^−1cm^−1; λabs [8]: 632 nm; λem [8]: 649 nm; performance in SPT experiments compared with 1HTL and 89HTL [5]: comparable performance |
